From patent publication EP0155872A1, “Process for reducing the lignin content of plants, and compositions for putting it into use” (priority 1984, dated 1985)
Entries after “also recorded” stand apart in the source; their conditions may differ. Where two headings read alike, the source gives them in different places.

Tests used:
cultures de tabac = details: prior art; cited from earlier work
CAD de peuplier = target: T1, CAD de peuplier (Populus deltoides, UniProt P31657); assay: In vitro inhibition of isolated poplar cinnamyl alcohol dehydrogenase (CAD) at 2 mM; type: biochemical; details: for inhibition at 2000 µM / Inhibition à 2mM %: 2mM, CAD de peuplier; for inhibition at 2000 µM: read-out: Inhibition à 2mM %
T1 construct: CAD de peuplier isolée selon la méthode deSARNI et al,1984; from tissue; host or cells: poplar plant material
T1 sequence (P31657 1-357): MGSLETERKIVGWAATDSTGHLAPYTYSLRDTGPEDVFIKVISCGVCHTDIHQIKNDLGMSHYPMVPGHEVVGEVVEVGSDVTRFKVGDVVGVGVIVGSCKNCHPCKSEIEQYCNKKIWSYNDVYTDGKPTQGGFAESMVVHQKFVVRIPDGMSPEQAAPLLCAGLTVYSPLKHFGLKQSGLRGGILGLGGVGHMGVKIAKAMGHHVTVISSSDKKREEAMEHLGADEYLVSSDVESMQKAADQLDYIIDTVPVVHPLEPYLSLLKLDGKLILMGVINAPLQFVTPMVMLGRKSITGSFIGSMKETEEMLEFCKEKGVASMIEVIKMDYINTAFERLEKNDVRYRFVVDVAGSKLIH
Excerpt: Après réacidification à pH2 par de l'acide chlorhydrique 3N et centrifugation, le surnageant contenant les acides cinnamiques est séparé du résidu. Les "poudres alcool-benzène" ainsi hydrolysées sont lavées par de l'eau distillée jusqu'à pH neutre et séchées, sous vide dans un dessiccateur en présence de silica.-gel. Les teneurs en lignines sont estimées par la méthode gravimétriques de KLASON (Tappi Standard method Tl2m) modifiée par EFFLAND. Tappi, 60, p 143-144, 1977. On rapporte dans le tableau 1) suivant les résultats obtenus concernant l'effet mesuré in vitro d'inhibiteurs selon l'invention à une concentration de 2mM vis-à-vis de la CAD de peuplier isolée selon la méthode deSARNI et al,1984,EUROP JOURNAL OF BIOCHEMISTRY, 18(1),139, 259-265 On indique également dans ce tableau les résultats obtenus avec des composés portant des substitutions différentes de ceux mis enoe uvre dans l'invention. Les chiffres indiqués entre parenthèses a côté des formules correspondent aux composés identifiés dans les exemples de préparation 2 et 3.
On rapporte dans le tableau 2 suivant les pourcentages d'inhibition de la CAD obtenus en utilisant, à raison de 2 mM, différents composés capables de complexer Zn.

CAD = target: T2, CAD (Populus deltoides, UniProt P31657); assay: In vitro CAD activity with nitro derivatives, physiological direction (aldehyde reduction, NADPH oxidation at 340 nm); type: biochemical; details: read-out: % d'inhibition (activité CAD); for inhibition at 230 µM: Concentration finale dans le milieu 0,230 mM; for inhibition at 375 µM: Concentration finale dans le milieu 0,375 mM
T2 sequence (P31657 1-357): T1 sequence (P31657 1-357)
Excerpt: η) Effets des dérivés nitrés sur l'activité CAD "in vitro". Concentration finale % d'inhibition
Les mesures ont été réalisées dans le sens physiologique (aldéhyde alcool), c'est-à-dire en suivant la réduction de l'aldéhyde (oxydation du NADPH mesurée à 340 nm).(Les tests sont plus sensibles et plus proches du milieu "in vivo".

NOC(Cc1ccccc1)C(=O)O (racemic) [acide D,L-α-aminoxy-β -phényl-propionique]
réduction des phénols totaux (cultures de tabac): ~30%

O=C(O)CSCC(=O)c1ccccc1 [Acide oxo-5-phényl-5-thia-3, reference compound]
inhibition at 2000 µM (CAD de peuplier): 40%

O=C(O)CS(=O)(=O)Nc1ccccc1 [NPS, N-(phényl) sulfamoyle]
inhibition at 2000 µM (CAD de peuplier): 45%

CC(C)[S+]([O-])Nc1ccccc1 (stereo not shown) [NPSP, N-(phényl) sulfinamoyl d'isopropyle, reference compound]
inhibition de l'activité CAD (in words) (CAD de peuplier): inefficaces; also recorded: n'inhibent pas
inhibition at 2000 µM (CAD de peuplier): 0%

CC(C)(C)OC(=O)CC(=O)Nc1ccccc1 [PCAD, Phényl(carbamoyl) acétate de tertiobutyle, reference compound]
inhibition at 2000 µM (CAD de peuplier): 0%

CC(C)(C)OC(=O)C[S+]([O-])Nc1ccccc1 (stereo not shown) [composé 1, N-(phényl)sulfinamoyl acétate de tertiobutyle]
inhibition at 2000 µM (CAD de peuplier): 50%

CC(C)(C)OC(=O)CS(=O)(=O)Nc1ccccc1 [composé 7a, N-(phényl)sulfamoyl acétate de tertiobutyle]
inhibition at 2000 µM (CAD de peuplier): 50%

CC(C)(C)OC(=O)CS(=O)(=O)NC1CCCCC1 [compound 14, N-(Cyclohexyl)sulfamoyl acétate de tertiobutyle]
inhibition at 2000 µM (CAD de peuplier): 0%

CC(C)(C)OC(=O)C(C)(C)[S+]([O-])Nc1ccccc1 (stereo not shown) [compound 15, N-(Phényl)sulfinamoyl isobutyrate de tertiobutyle]
inhibition at 2000 µM (CAD de peuplier): 0%
inhibition de l'activité CAD (in words) (CAD de peuplier; listed as NPSI): inefficaces; also recorded: n'inhibent pas

CC(C)(C)OC(=O)C[S+]([O-])NC1CCCCC1 (stereo not shown) [compound 17, N-(Cyclohexyl)sulfinamoyl acétate de tertiobutyle]
inhibition at 2000 µM (CAD de peuplier): 0%

CC(C)(C)OC(=O)C[S+]([O-])Nc1ccc([N+](=O)[O-])cc1O (stereo not shown) [nitro OH PAS]
inhibition at 230 µM (CAD): 5%
inhibition at 375 µM (CAD): 41%
inhibition at 500 µM (CAD; Concentration finale dans le milieu 0,500 mM): 100%

CC(C)(C)OC(=O)C[S+]([O-])Nc1ccc([N+](=O)[O-])cc1 (stereo not shown) [nitro PAS]
inhibition at 125 µM (CAD; Concentration finale dans le milieu 0,125 mM): 14%
inhibition at 188 µM (CAD; Concentration finale dans le milieu 0,188 mM): 28%
inhibition at 230 µM (CAD): 68%
inhibition at 375 µM (CAD): 100%

(Hydroxy-4-methoxy-3-phényl)-3-Hydroxy-3-propanethiate de 5-phényle [HMHP, reference compound]
Inhibition à 2mM % (CAD de peuplier): 40%

N-(Thiazolyl-2) Sulfanilamide [NTS, reference compound]
Inhibition à 2mM % (CAD de peuplier): 55%

N-tert-butyl-methoxy-2 (Iminomethyl) - 4 phénol [BIP, reference compound]
Inhibition à 2mM % (CAD de peuplier): 50%
